What was measured:
SdCPS2 = target: T1, SdCPS2 (Scoparia dulcis, UniProt A0A1U8XUA9); assay: GC-MS of n-hexane extract of recombinant E. coli cultures; format: cell-based; details: GGPP supplied by co-expressed SdGGPPS; 16 °C; product seen as dephosphorylated alcohol
T1 construct: gene CPS2; full ORF 2412 bp, 804 residues
T1 sequence (A0A1U8XUA9 81-804): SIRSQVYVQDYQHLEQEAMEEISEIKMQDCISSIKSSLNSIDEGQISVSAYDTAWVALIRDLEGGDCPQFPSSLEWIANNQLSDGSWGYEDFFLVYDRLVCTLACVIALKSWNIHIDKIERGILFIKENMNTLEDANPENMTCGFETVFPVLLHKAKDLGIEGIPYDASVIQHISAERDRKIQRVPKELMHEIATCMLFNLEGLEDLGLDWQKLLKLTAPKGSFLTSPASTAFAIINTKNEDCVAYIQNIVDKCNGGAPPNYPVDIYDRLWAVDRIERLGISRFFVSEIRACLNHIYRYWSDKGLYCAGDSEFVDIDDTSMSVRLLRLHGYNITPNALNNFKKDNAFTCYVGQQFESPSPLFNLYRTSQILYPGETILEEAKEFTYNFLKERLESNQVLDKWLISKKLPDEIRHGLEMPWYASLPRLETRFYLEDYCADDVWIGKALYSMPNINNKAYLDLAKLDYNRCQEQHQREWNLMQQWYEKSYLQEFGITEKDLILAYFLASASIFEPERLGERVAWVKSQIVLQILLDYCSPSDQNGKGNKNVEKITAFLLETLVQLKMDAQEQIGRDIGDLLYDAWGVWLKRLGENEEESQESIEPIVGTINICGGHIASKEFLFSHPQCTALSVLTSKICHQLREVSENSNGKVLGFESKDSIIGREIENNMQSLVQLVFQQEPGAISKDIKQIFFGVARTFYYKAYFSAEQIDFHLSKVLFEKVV

OsKSL4 = target: T2, OsKSL4 (Oryza sativa, UniProt Q0JEZ8); assay: as above; format: cell-based; details: reference enzyme; syn-CPP supplied by co-expressed SdCPS2 or OsCPS4 with SdGGPPS; 16 °C; product 7
T2 construct: gene KSL4; in pET28b (NcoI/NotI), expressed in E. coli C41
T2 sequence (Q0JEZ8 57-842): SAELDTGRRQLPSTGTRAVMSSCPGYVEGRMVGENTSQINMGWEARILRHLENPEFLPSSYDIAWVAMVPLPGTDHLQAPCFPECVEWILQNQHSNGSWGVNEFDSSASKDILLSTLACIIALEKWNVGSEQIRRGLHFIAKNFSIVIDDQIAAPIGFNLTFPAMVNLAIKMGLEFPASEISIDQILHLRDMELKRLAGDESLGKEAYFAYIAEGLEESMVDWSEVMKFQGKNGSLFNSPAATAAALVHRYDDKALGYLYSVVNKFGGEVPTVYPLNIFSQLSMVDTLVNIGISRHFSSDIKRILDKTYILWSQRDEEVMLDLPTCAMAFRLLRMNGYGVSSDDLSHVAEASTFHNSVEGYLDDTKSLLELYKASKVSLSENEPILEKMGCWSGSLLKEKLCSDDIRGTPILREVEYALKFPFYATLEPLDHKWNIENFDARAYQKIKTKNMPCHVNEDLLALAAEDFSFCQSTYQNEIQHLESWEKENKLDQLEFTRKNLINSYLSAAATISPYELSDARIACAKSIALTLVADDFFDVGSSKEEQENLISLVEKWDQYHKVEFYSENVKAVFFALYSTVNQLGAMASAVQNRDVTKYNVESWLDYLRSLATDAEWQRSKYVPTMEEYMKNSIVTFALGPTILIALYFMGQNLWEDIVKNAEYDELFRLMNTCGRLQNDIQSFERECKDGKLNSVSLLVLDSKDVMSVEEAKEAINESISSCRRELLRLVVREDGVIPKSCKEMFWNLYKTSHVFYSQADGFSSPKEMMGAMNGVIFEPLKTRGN

Compound | GC-MS of n-hexane extract of recombinant E. coli cultures (SdCPS2) | GC-MS of n-hexane extract of recombinant E. coli cultures (OsKSL4)
CC(C)=CCC/C(C)=C/CC/C(C)=C/CC/C(C)=C/COP(=O)(O)OP(=O)(O)O [compound 2, geranylgeranyl diphosphate] | The SdCPS2 catalyzed a cyclization reaction from GGPP to syn-CPP | –
C=C1CC[C@H]2C(C)(C)CCC[C@]2(C)[C@@H]1CC/C(C)=C/COP(=O)(O)OP(=O)(O)O [compound 3, syn-copalyl diphosphate] | – | SdCPS2 could be cyclized by OsKSL4, whose substrate is a syn-copalyl diphosphate
